The results in this text go back to PubChem BioAssay (NCI).

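Each compound was tested at five concentrations against cells in 96-well plates for 48 hours. Definition used: TGI = concentration required for complete inhibition of growth.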

The subject of one experiment is KM12 colon. Description: NCI-60 cell line screen, 48 h.
In the case of `COC(=O)[C@@H]1CCCN1CCN1CCC[C@H]1C(=O)OC`, the TGI is > 100 µM.

Regarding `CCOc1ccc(-c2nc(-c3oc4ccccc4c(=O)c3OC(C)=O)cs2)cc1`, the TGI is > 10 µM.

Take `CCOC(=O)c1ccc(N2C(=S)N(C(=O)c3ccccc3)C(=Nc3ccccc3)C2=Nc2ccccc2)cc1`: the TGI is > 100 µM.

For `NP(=O)(OCC1=CC(=O)c2ccccc2C1=O)N(CCBr)CCBr` (stereo not drawn), the TGI was found to be 25 µM.

In the next experiment the test system is HOP-92 NSCLC. Description: NCI-60 cell line screen, 48 h.
With `COC(=O)[C@@H]1CCCN1CCN1CCC[C@H]1C(=O)OC`, the TGI was > 100 µM.

Compound `CCOC(=O)c1ccc(N2C(=S)N(C(=O)c3ccccc3)C(=Nc3ccccc3)C2=Nc2ccccc2)cc1` returned a TGI of 78.7 µM.

Consider `NP(=O)(OCC1=CC(=O)c2ccccc2C1=O)N(CCBr)CCBr` (stereo not drawn), for which the TGI was determined as 31.5 µM.

A further experiment concerns TK-10 renal. Put plainly: NCI-60 cell line screen, 48 h.
In the case of `COC(=O)[C@@H]1CCCN1CCN1CCC[C@H]1C(=O)OC`, the TGI is > 100 µM.

Take `CCOc1ccc(-c2nc(-c3oc4ccccc4c(=O)c3OC(C)=O)cs2)cc1`: the TGI is > 10 µM.

Consider `CCOC(=O)c1ccc(N2C(=S)N(C(=O)c3ccccc3)C(=Nc3ccccc3)C2=Nc2ccccc2)cc1`, for which the TGI was > 100 µM.

The compound `NP(=O)(OCC1=CC(=O)c2ccccc2C1=O)N(CCBr)CCBr` (stereo not drawn) returned a TGI of 33.1 µM.

A further experiment has as its system SF-268 CNS. Put plainly: NCI-60 cell line screen, 48 h.
For `COC(=O)[C@@H]1CCCN1CCN1CCC[C@H]1C(=O)OC`, the TGI was > 100 µM.

Take `CCOc1ccc(-c2nc(-c3oc4ccccc4c(=O)c3OC(C)=O)cs2)cc1`: the TGI is > 10 µM.

Regarding `CCOC(=O)c1ccc(N2C(=S)N(C(=O)c3ccccc3)C(=Nc3ccccc3)C2=Nc2ccccc2)cc1`, the TGI was > 100 µM.

Turning to `NP(=O)(OCC1=CC(=O)c2ccccc2C1=O)N(CCBr)CCBr` (stereo not drawn), the TGI came out at 26.7 µM.

The next experiment relates to SNB-19 CNS. Description: NCI-60 cell line screen, 48 h.
In the case of `COC(=O)[C@@H]1CCCN1CCN1CCC[C@H]1C(=O)OC`, the TGI is > 100 µM.

Regarding `CCOC(=O)c1ccc(N2C(=S)N(C(=O)c3ccccc3)C(=Nc3ccccc3)C2=Nc2ccccc2)cc1`, the TGI was > 100 µM.

Take `NP(=O)(OCC1=CC(=O)c2ccccc2C1=O)N(CCBr)CCBr` (stereo not drawn): the TGI is > 55.1 µM.

Another experiment has as its system CAKI-1 renal. Description: NCI-60 cell line screen, 48 h.
For `COC(=O)[C@@H]1CCCN1CCN1CCC[C@H]1C(=O)OC`, the TGI was > 100 µM.

For the compound `CCOc1ccc(-c2nc(-c3oc4ccccc4c(=O)c3OC(C)=O)cs2)cc1`, the TGI was > 10 µM.

Consider `CCOC(=O)c1ccc(N2C(=S)N(C(=O)c3ccccc3)C(=Nc3ccccc3)C2=Nc2ccccc2)cc1`, for which the TGI was > 100 µM.

For `NP(=O)(OCC1=CC(=O)c2ccccc2C1=O)N(CCBr)CCBr` (stereo not drawn), the TGI was found to be 8.1 µM.

The subject of a further experiment is UACC-257 melanoma. Put plainly: NCI-60 cell line screen, 48 h.
Regarding `CCOc1ccc(-c2nc(-c3oc4ccccc4c(=O)c3OC(C)=O)cs2)cc1`, the TGI was > 10 µM.

In the case of `CCOC(=O)c1ccc(N2C(=S)N(C(=O)c3ccccc3)C(=Nc3ccccc3)C2=Nc2ccccc2)cc1`, the TGI is > 100 µM.

`NP(=O)(OCC1=CC(=O)c2ccccc2C1=O)N(CCBr)CCBr` (stereo not drawn) returned a TGI of 4.21 µM.

The subject of the next experiment is SK-OV-3 ovarian. Description: NCI-60 cell line screen, 48 h.
Turning to `COC(=O)[C@@H]1CCCN1CCN1CCC[C@H]1C(=O)OC`, the TGI was > 100 µM.

Take `CCOc1ccc(-c2nc(-c3oc4ccccc4c(=O)c3OC(C)=O)cs2)cc1`: the TGI was > 10 µM.

Regarding `CCOC(=O)c1ccc(N2C(=S)N(C(=O)c3ccccc3)C(=Nc3ccccc3)C2=Nc2ccccc2)cc1`, the TGI is > 100 µM.

With `NP(=O)(OCC1=CC(=O)c2ccccc2C1=O)N(CCBr)CCBr` (stereo not drawn), the TGI worked out at 30.9 µM.

The test system of another experiment is T-47D breast. Put plainly: NCI-60 cell line screen, 48 h.
As for `COC(=O)[C@@H]1CCCN1CCN1CCC[C@H]1C(=O)OC`, the TGI is > 100 µM.

Consider `CCOc1ccc(-c2nc(-c3oc4ccccc4c(=O)c3OC(C)=O)cs2)cc1`, for which the TGI is > 10 µM.

As for `NP(=O)(OCC1=CC(=O)c2ccccc2C1=O)N(CCBr)CCBr` (stereo not drawn), the TGI amounted to 29.7 µM.

The test system of a further experiment is SK-MEL-28 melanoma. Description: NCI-60 cell line screen, 48 h.
`COC(=O)[C@@H]1CCCN1CCN1CCC[C@H]1C(=O)OC`: the TGI is > 100 µM.

`CCOc1ccc(-c2nc(-c3oc4ccccc4c(=O)c3OC(C)=O)cs2)cc1`: the TGI was > 10 µM.

Turning to `CCOC(=O)c1ccc(N2C(=S)N(C(=O)c3ccccc3)C(=Nc3ccccc3)C2=Nc2ccccc2)cc1`, the TGI was > 100 µM.

In the case of `NP(=O)(OCC1=CC(=O)c2ccccc2C1=O)N(CCBr)CCBr` (stereo not drawn), the TGI amounted to 11.7 µM.

Another experiment relates to OVCAR-5 ovarian. Put plainly: NCI-60 cell line screen, 48 h.
Consider `COC(=O)[C@@H]1CCCN1CCN1CCC[C@H]1C(=O)OC`, for which the TGI is > 100 µM.

For the compound `CCOC(=O)c1ccc(N2C(=S)N(C(=O)c3ccccc3)C(=Nc3ccccc3)C2=Nc2ccccc2)cc1`, the TGI was > 100 µM.

With `NP(=O)(OCC1=CC(=O)c2ccccc2C1=O)N(CCBr)CCBr` (stereo not drawn), the TGI was found to be 45.1 µM.

The subject of a further experiment is MOLT-4 leukemia. Description: NCI-60 cell line screen, 48 h.
Regarding `COC(=O)[C@@H]1CCCN1CCN1CCC[C@H]1C(=O)OC`, the TGI was > 100 µM.

On to `CCOc1ccc(-c2nc(-c3oc4ccccc4c(=O)c3OC(C)=O)cs2)cc1`, for which the TGI was > 10 µM.

In turn, `NP(=O)(OCC1=CC(=O)c2ccccc2C1=O)N(CCBr)CCBr` (stereo not drawn) returned a TGI of 10.8 µM.

For a further experiment, the system named is SW-620 colon. Description: NCI-60 cell line screen, 48 h.
For the compound `COC(=O)[C@@H]1CCCN1CCN1CCC[C@H]1C(=O)OC`, the TGI is > 100 µM.

Take `CCOc1ccc(-c2nc(-c3oc4ccccc4c(=O)c3OC(C)=O)cs2)cc1`: the TGI was > 10 µM.

Regarding `CCOC(=O)c1ccc(N2C(=S)N(C(=O)c3ccccc3)C(=Nc3ccccc3)C2=Nc2ccccc2)cc1`, the TGI is > 100 µM.

In the case of `NP(=O)(OCC1=CC(=O)c2ccccc2C1=O)N(CCBr)CCBr` (stereo not drawn), the TGI was > 34.2 µM.

In the next experiment the test system is HCT-15 colon. Description: NCI-60 cell line screen, 48 h.
Turning to `COC(=O)[C@@H]1CCCN1CCN1CCC[C@H]1C(=O)OC`, the TGI is > 100 µM.

Take `CCOc1ccc(-c2nc(-c3oc4ccccc4c(=O)c3OC(C)=O)cs2)cc1`: the TGI is > 10 µM.
